Key:
[1] = tested on: CML-AGE; assay: Immunohistochemical staining of renal CML-AGE accumulation; assay type: in vivo, rat; conditions: diabetic rats, increasing concentrations; 25 and 50 mg/L best inhibitory effects
From the text: (§1) Formalin-fixed […] embedded kidney sections ([…]) were mounted on slides and stained with 6D12 monoclonal anti-CML-AGE, polyclonal rabbit anti-RAGE and polyclonal goat anti-nitrotyrosine antibodies as described before (25). […] Similarly, RAGE protein expression in the glomeruli was visibly higher in diabetic rats compared with non-diabetic animals (FIG. 5).

[2] = tested on: kidneys of diabetic rats; assay: Kidney histology (PAS and Trichrome staining) in STZ-diabetic rats; assay type: in vivo, rat
Protocol: (§2) At the end of study, the rats were weighed and anaesthetized with isofluorane and blood was drawn by heart puncture and transferred into heparinized and non-heparinized vacutainer tubes on ice. These blood samples were later centifuged for plasma and serum collection respectively, and stored at −70° C. until the time of analysis. Rats were killed by over-anesthetization and cardiac puncture and the kidneys were removed immediately, weighed, decapsulated and rinsed in PBS buffer. Sections of the kidneys were stored in 10% NBF for subsequent microscopic examinations and immunohistochemistry.

[3] = tested on: MCP-1; assay: Secreted MCP-1 levels of THP-1 cells by ELISA; assay type: cell-based, human; conditions: THP-1 supernatants
Protocol: Measurement of MCP-1 levels by ELISA. Supernatants of THP-1 cells (5×10^5 cells/ml) cultured in RPMI 1640 medium containing 2% FBS for 18 hrs under control or LR-90 treated conditions were used to assay secreted MCP-1 levels using the Quantikine ELISA kit. Medium alone without cells was incubated under the same conditions and used as blank control for the ELISA.
Data Analyses. Statistical analyses were performed using Prism software (GraphPad, San Diego, Calif., USA). Unless otherwise indicated, data are presented as Means±Std. Group comparisons were analyzed using one-way ANOVA and subsequent post-hoc analysis by Tukey's test. A P value of less than 0.05 was considered statistically significant.

[4] = tested on: MCP-1; assay: S100b-induced MCP-1 mRNA expression on THP-1 monocytes (RT-PCR); assay type: cell-based, human; conditions: THP-1, pre-treated 1 hr with 25-200 ug/ml, S100b 4 hr; statistically significant at 100 and 200 ug/ml
Protocol: (§3) Human THP-1 monocytic cells were obtained from the American Type Culture Collection and cultured as described (27) in RPMI 1640 medium supplemented with 10% fetal calf serum (FCS), glutamine, HEPES, streptomycin/penicillin ([…]/100 units/ml), 50 uM-mercaptoethanol, and 5.5 mM D-glucose in a 5% CO2 incubator at 37° C. THP-1 cells (5×10^5 cells/ml) in 4 ml of medium were pre-treated with various concentrations of LR-90 (0, 25, 50, 100 and 200 ug/ml; prepared in 20 mM stock solution in DMSO) for 1 hr. Control cells received DMSO vehicle only. Thereafter, S100b ([…]) was added and cells re-incubated for 4 hr. The cell suspension was then centrifuged at 200 g, the supernatant was removed and the cell pellet was frozen at −70° C. for subsequent RNA extraction.
(§4) RNA Extraction and Relative RT-PCR-Total RNA was isolated by the RNA-STAT-60 reagent method (Teltest, Friendswood, Tex.), and […] was used for the RT reaction using a Gene Amp RNA PCR kit. […] PCR products were fractionated on 2.5% agarose gels, photographed using Alpha Imager 2000, and analyzed with Quantity 1 software (Bio-Rad Laboratories, Hercules, Calif.). Results were expressed as fold stimulation over control after normalizing with paired 18S RNA gene.
(§5) Data Analyses. […] Group comparisons were analyzed using one-way ANOVA and subsequent post-hoc analysis by Tukey's test. […]

[5] = tested on: non-diabetic rats; assay: Non-diabetic control rats given LR-90 in drinking water for 32 weeks; assay type: in vivo, rat
Protocol: (§6) Animal studies were carried out in compliance with policies outlined in “The Guide for the care and Handling of Laboratory Animals” (NIH Publication No. 85-23), which have been approved by the City of Hope National Medical Center Animal Care Committee. Induction of diabetes by STZ and all other procedures were according to the previously published article on LR-90 (25), except that in the present study the diabetic rats under treatment were randomized in 5 groups of ten each: one diabetic control group (0 mg/L), one group receiving 2.5 mg/L, one group receiving 10 mg/L, a third group receiving 20 mg/L and a fourth group receiving 50 mg/L of LR-90 in drinking water (FIG. 1). Both plasma glucose and body weight were checked before administration of the drug, and no differences were detected among the two non-diabetic groups and five diabetic treatment groups. All animals were housed individually and were given free access to food (Purina rodent chow 5001, Ralston Purina, Richmond, Ind., USA) and water. Glycemic control and body weights were monitored periodically. In order to limit hyperglycemia and ensure that animals maintained body weight, diabetic animals received 3 IU of ultralente insulin (Humulin U, Eli Lilly, Indianapolis, Ind., USA) two to three times per week. The study was carried out over 32 weeks.
(§7) Blood (from the tail vein) and urine samples were collected from rats for glycemic control analysis and albuminuria measurements. Plasma glucose was measured using a glucose analyzer machine (YSI 2300 STAT, Yellowsprings, Ohio, USA). HbAlc concentration was measured by HPLC (BioRad DIAMAT, Hercules, Calif., USA). Total plasma triglycerides and cholesterol concentrations were quantified at the end of the study using the Vitros 250 Chemistry System (Johnson & Johnson, Rochester, N.Y., USA). Progression of renal dysfunction was assessed by measuring urinary albumin-to-creatinine ratio (ACR). Rats were housed in metabolic cages (Nalge, Rochester, N.Y., USA) for 24 hr and urine was collected in a collection beaker with several drops of toluene to inhibit microbial growth. Urinary albumin and creatinine concentrations were quantified immunologically using the Nephrat/Creatinine Companion kits (Exocell), and the ACR value was calculated for each rat.
At the end of study, the rats were weighed and anaesthetized with isofluorane and blood was drawn by heart puncture and transferred into heparinized and non-heparinized vacutainer tubes on ice. These blood samples were later centifuged for plasma and serum collection respectively, and stored at −70° C. until the time of analysis. […]
Statistical analyses were performed using Prism software (GraphPad, San Diego, Calif., USA). […] Group comparisons were analyzed using one-way ANOVA and subsequent post-hoc analysis by Tukey's test. […]

[6] = tested on: RAGE; assay: Immunohistochemical staining of renal RAGE protein expression; assay type: in vivo, rat; conditions: diabetic rats, increasing concentrations; 25 and 50 mg/L best inhibitory effects
From the text: as §1

[7] = tested on: STZ-diabetic rats; assay: Body weight, glycemic control and albuminuria in STZ-induced diabetic rats given LR-90 in drinking water for 32 weeks; assay type: in vivo, rat
Protocol: as §6, §7, §2
Statistical analyses were performed using Prism software (GraphPad, San Diego, Calif., USA). Unless otherwise indicated, data are presented as Means±Std. Group comparisons were analyzed using one-way ANOVA and subsequent post-hoc analysis by Tukey's test. A P value of less than 0.05 was considered statistically significant.

[8] = tested on: STZ-diabetic rats; assay: Total plasma triglycerides and cholesterol in STZ-diabetic rats; assay type: in vivo, rat
Protocol: Animal studies were carried out in compliance with policies outlined in “The Guide for the care and Handling of Laboratory Animals” (NIH Publication No. 85-23), which have been approved by the City of Hope National Medical Center Animal Care Committee. Induction of diabetes by STZ and all other procedures were according to the previously published article on LR-90 (25), except that in the present study the diabetic rats under treatment were randomized in 5 groups of ten each: one diabetic control group (0 mg/L), […] (FIG. 1). Both plasma glucose and body weight were checked before administration of the drug, and no differences were detected among the two non-diabetic groups and five diabetic treatment groups. All animals were housed individually and were given free access to food (Purina rodent chow 5001, Ralston Purina, Richmond, Ind., USA) and water. Glycemic control and body weights were monitored periodically. In order to limit hyperglycemia and ensure that animals maintained body weight, diabetic animals received 3 IU of ultralente insulin (Humulin U, Eli Lilly, Indianapolis, Ind., USA) two to three times per week. The study was carried out over 32 weeks.
as §7

[9] = tested on: NADPH oxidase (gp91^phox subunit); assay: S100b-induced NADPH oxidase mRNA expression on THP-1 monocytes (RT-PCR); assay type: cell-based, human; conditions: THP-1, pre-treated 1 hr with 25-200 ug/ml, S100b 4 hr; statistically significant at 100 and 200 ug/ml
Protocol: as §3, §4, §5

[10] = tested on: STZ-diabetic rats; assay: Body weight, glycemic control and albuminuria in STZ-induced diabetic rats given LR-90 in drinking water for 32 weeks; assay type: in vivo, rat; remark: listed apart in the source
[11] = tested on: RAGE; assay: S100b-induced RAGE mRNA expression on THP-1 monocytes (RT-PCR); assay type: cell-based, human; conditions: THP-1, pre-treated 1 hr with 25-200 ug/ml, S100b 4 hr; statistically significant at 100 and 200 ug/ml
Protocol: as §3, §4, §5

[12] = tested on: COX-2; assay: S100b-induced COX-2 mRNA expression on THP-1 monocytes (RT-PCR); assay type: cell-based, human; conditions: THP-1, pre-treated 1 hr with 25-200 ug/ml, S100b 4 hr; statistically significant at 100 and 200 ug/ml
Protocol: as §3, §4, §5

[13] = tested on: THP-1 cells; assay: Cell viability test on THP-1 cells (cell counter, Trypan Blue); assay type: cell-based, human
Protocol: Cell Viability Test—THP-1 cells were seeded onto 6-well plates at a concentration of ˜5×10^5/ml in RPMI medium containing 10% FCS as above, and then incubated with various concentrations of LR-90 or control medium alone for 24 hr at 37° C., 5% CO2. After incubation, overall cell counts were measured using a cell counter (Coulter Z1 Cell and Particle Counter, Beckman Coulter Inc., Fullerton, Calif.), and the number of viable cells determined by hemocytometer counts of Trypan Blue—impermeable cells.

[14] = tested on: rats fed a diet rich in cholesterol; conditions: cited from earlier work
[15] = molecular target: hemoglobin (Homo sapiens, UniProt P68871+P69905); conditions: synergistic with 2,3-bisphosphoglycerate; cited from earlier work
[16] = marked difference at 25 and 50 mg/L
[17] = non-diabetic rats, 50 mg per liter drinking water daily
[18] = 2.5 mg per liter drinking water daily
[19] = 10 mg per liter drinking water daily
[20] = 50 mg per liter drinking water daily
[21] = streptozotocin-induced diabetic rats, summary statement
[22] = 25 mg per liter drinking water daily

Sequence of hemoglobin (P69905 2-142 limits assumed): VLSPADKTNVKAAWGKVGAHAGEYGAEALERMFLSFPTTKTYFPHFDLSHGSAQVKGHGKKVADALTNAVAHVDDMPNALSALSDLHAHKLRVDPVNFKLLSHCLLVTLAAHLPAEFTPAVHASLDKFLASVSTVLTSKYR
Sequence of hemoglobin (P68871 2-147 limits assumed): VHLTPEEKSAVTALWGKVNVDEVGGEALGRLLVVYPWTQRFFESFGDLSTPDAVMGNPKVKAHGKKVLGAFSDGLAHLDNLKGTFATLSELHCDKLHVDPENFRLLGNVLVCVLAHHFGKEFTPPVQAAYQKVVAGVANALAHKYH

CC(C)(Oc1ccc(NC(=O)Nc2ccc(Cc3ccc(NC(=O)Nc4ccc(OC(C)(C)C(=O)O)cc4)c(Cl)c3)cc2Cl)cc1)C(=O)O [LR-90]
CML-AGE accumulation in kidney glomeruli and cortical tubules [1]: visibly reduced | cell infiltration in the renal interstitium [2]: prevented cell infiltration | mesangial expansion and basement membrane thickening of the kidneys [2]: prevented mesangial expansion and basement membrane thickening | collagen deposition and tubular degeneration in the kidney glomeruli (Trichrome staining) [2, 16]: prevented collagen deposition and tubular degeneration | levels of PAS-positive materials in kidney glomeruli [2, 16]: reduced the levels of PAS-positive materials | MCP-1 protein expression (secreted, ELISA) [3]: inhibited MCP-1 protein expression in a concentration-dependent manner | S100b-induced MCP-1 mRNA expression [4]: profoundly suppressed | effect on lipid metabolism ([5]; non-diabetic animals): no effect | ACR (urinary albumin-to-creatinine ratio) [5, 17]: 0.42 ± 0.32 mg/mg | HbA1c [5, 17]: 1.2 ± 0.1% | Plasma Glucose [5, 17]: 8.9 ± 1.0 mmol/L | RAGE protein expression in the glomeruli [6]: visibly reduced | ACR (urinary albumin-to-creatinine ratio) [7, 18]: 2.35 ± 1.96 mg/mg | HbA1c [7, 18]: 2.6 ± 0.6 % | Plasma Glucose [7, 18]: 29.9 ± 5.9 mmol/L | ACR (urinary albumin-to-creatinine ratio) [7, 19]: 2.60 ± 1.74 mg/mg | HbA1c [7, 19]: 3.0 ± 0.4 % | Plasma Glucose [7, 19]: 30.8 ± 2.9 mmol/L | HbA1c [7, 20]: 3.0 ± 0.2 % | Plasma Glucose [7, 20]: 31.6 ± 3.9 mmol/L | ACR (urinary albumin-to-creatinine ratio) ([7]; 50 mg per liter drinking water daily, p < 0.05 vs. diabetic rats): 1.39 ± 1.17 mg/mg | effect on HbAlc concentration ([7]; various doses): no affect | effect on plasma glucose concentration ([7]; various doses): no affect | reduction in triglyceride concentration ([8]; diabetic rats, 25 mg/L): ≥ 60% | reduction in triglyceride concentration ([8]; diabetic rats, 50 mg/L): ≥ 60% | cholesterol concentration relative to non-diabetic animals ([8]; diabetic rats, all concentrations tested with the exception of 10 mg/L): nearly normalized | reduction in triglyceride concentration ([8]; diabetic rats, lowest concentration (25 mg/L) tested): ~50% | reduction of increased concentration of cholesterol [8, 21]: more than 50% | reduction of increased concentration of triglycerides [8, 21]: more than 50% | S100b-induced NADPH oxidase mRNA expression [9]: profoundly suppressed | HbA1c [10, 22]: 2.9 ± 0.4 % | Plasma Glucose [10, 22]: 26.7 ± 2.4 mmol/L | ACR (urinary albumin-to-creatinine ratio) ([10]; 25 mg per liter drinking water daily, p < 0.05 vs. diabetic rats): 1.75 ± 1.43 mg/mg | rise in ACR ([10]; 25 and 50 mg/L doses statistically significant vs. untreated diabetic animals): inhibited the rise in ACR in almost dose-dependent manner | S100b-induced RAGE mRNA expression [11]: profoundly suppressed | S100b-induced COX-2 mRNA expression [12]: profoundly suppressed | cell viability (Trypan blue staining) [13]: viable | cell counts after incubation ([13]; THP-1, same concentrations as in S100b experiments, 24 hr): normal and statistically similar to the untreated cells

N-4-(nitrophthalimido)phenoxyisobutyric acid [LR-16]
low-density lipoproteins (LDL) [14]: lower | serum cholesterol [14]: lower | effect on oxygen affinity of hemoglobin molecules [15]: allosteric effector
